Measurements as given in ChEMBL document CHEMBL1201862, “PubChem BioAssay data set” (2004).
“And” between values parts separate entries of the source, which are not always exact repeats. Equal entries are not always repeated.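 Briefly, cells in 96-well plates were exposed to five compound concentrations for 48 h, and endpoints were estimated by linear interpolation. GI50: concentration for 50% inhibition of growth.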 The source made the active and inactive calls. No stated cut-off is given here; in the data, active = GI50 up to about 1.1 µM and inactive = higher.

Legend:
Assay in all cases: NCI anticancer screen, dose series, 48 h
A549 = system: A549
BT-549 = system: BT-549
DU-145 = system: DU-145
EKVX = system: EKVX
HCC 2998 = system: HCC 2998
HOP-92 = system: HOP-92
HT-29 = system: HT-29
KM12 = system: KM12
MDA-MB-231 = system: MDA-MB-231
NCI-H460 = system: NCI-H460
OVCAR-4 = system: OVCAR-4
RPMI-8226 = system: RPMI-8226
SK-MEL-2 = system: SK-MEL-2
SK-MEL-5 = system: SK-MEL-5
UACC-62 = system: UACC-62
UO-31 = system: UO-31
K562 = system: K562
PC-3 = system: PC-3
A498 = system: A498
RXF 393 = system: RXF 393

SMILES	GI50 (A549)	GI50 (BT-549)	GI50 (DU-145)	GI50 (EKVX)	GI50 (HCC 2998)	GI50 (HOP-92)	GI50 (HT-29)	GI50 (KM12)	GI50 (MDA-MB-231)	GI50 (NCI-H460)	GI50 (OVCAR-4)	GI50 (RPMI-8226)	GI50 (SK-MEL-2)	GI50 (SK-MEL-5)	GI50 (UACC-62)	GI50 (UO-31)	GI50 (K562)	GI50 (PC-3)	GI50 (A498)	GI50 (RXF 393)
CC(=O)C(C)C(=O)N1C(=O)N(C)C2(C)N(C)C(=O)NC12C (centres undefined)	> 100 µM (inactive)	> 100 µM (inactive)	> 100 µM (inactive)	> 100 µM (inactive)	> 100 µM (inactive)	> 100 µM (inactive)	> 100 µM (inactive)	> 100 µM (inactive)	> 100 µM (inactive)	> 100 µM (inactive)	> 100 µM (inactive)	> 100 µM (inactive)	> 100 µM (inactive)	> 100 µM (inactive)	> 100 µM (inactive)	> 100 µM (inactive)				
c1ccc2c(c1)SCCCSCCSCCCS2	> 100 µM (inactive)	> 100 µM (inactive)	> 100 µM (inactive)	99.8 µM (inactive)	> 100 µM (inactive)	48.9 µM (inactive)	> 100 µM (inactive)	> 100 µM (inactive)	57.3 µM (inactive)	> 100 µM (inactive)	93.5 µM (inactive)			> 100 µM (inactive)	> 100 µM (inactive)	60.5 µM (inactive)	> 100 µM (inactive)	> 100 µM (inactive)		
S=c1[nH]nc(Cn2c3ccc(Br)cc3c3nc4ccccc4nc32)o1	22.8 µM (inactive)	> 63.2 µM (inactive)	36.6 µM (inactive)	71.6 µM (inactive)	38.8 µM (inactive)		35.6 µM (inactive)	47.3 µM (inactive)	> 45.4 µM (inactive)	36.9 µM (inactive)		4.29 µM (inactive)	8.67 µM (inactive)	31.6 µM (inactive)	27.5 µM (inactive)	16.3 µM (inactive)	35.1 µM (inactive)	4.79 µM (inactive)	43.9 µM (inactive)	14.8 µM (inactive)
Oc1ccc(-c2cc(-c3c(O)cc(O)cc3O)on2)cc1	54.2 µM (inactive)	54.5 µM (inactive)	53.1 µM (inactive)	62.7 µM (inactive)	66.4 µM (inactive)		37 µM (inactive)	72.6 µM (inactive)	> 100 µM (inactive)	40.3 µM (inactive)	> 100 µM (inactive)	44.9 µM (inactive)	> 100 µM (inactive)	42.3 µM (inactive)	31.3 µM (inactive)	53 µM (inactive)	40.5 µM (inactive)	48 µM (inactive)		
CSC(=O)c1sc(SC)[n+](-c2ccccc2)c1O	> 100 µM (inactive)	15.1 µM (inactive)	16 µM (inactive)	> 10 µM (inactive)	19.6 µM (inactive)		20.2 µM (inactive)	> 10 µM (inactive)	11.3 µM (inactive)	27.9 µM (inactive)	12.1 µM (inactive)	21.5 µM (inactive)	22 µM (inactive)	20.8 µM (inactive)	15.6 µM (inactive)	17.3 µM (inactive)	16.6 µM (inactive)	14 µM (inactive)	30.1 µM (inactive)	14.5 µM (inactive)
Cc1cc(C)nc(NS(=O)(=O)c2ccc(Nc3c4ccccc4nc4c(C(=O)NCCO)cccc34)cc2)n1	29.6 µM (inactive)	17.6 µM (inactive)	40.8 µM (inactive)	41.5 µM (inactive)	10.4 µM (inactive)	> 100 µM (inactive)	13.1 µM (inactive)	10.9 µM (inactive)	12.4 µM (inactive)	14.1 µM (inactive)	33.3 µM (inactive)	10.3 µM (inactive)	11.8 µM (inactive)	17.1 µM (inactive)	21.5 µM (inactive)	> 10 µM (inactive)	12.4 µM (inactive)	23.2 µM (inactive)	38.5 µM (inactive)	
O=C(NCCNCCO)N/N=C/c1ccc(Cl)cc1	> 100 µM (inactive)	> 100 µM (inactive)	> 100 µM (inactive)		> 100 µM (inactive)		> 100 µM (inactive)	> 100 µM (inactive)	> 100 µM (inactive)	> 100 µM (inactive)			> 100 µM (inactive)	> 100 µM (inactive)	> 100 µM (inactive)	> 100 µM (inactive)	> 100 µM (inactive)	> 100 µM (inactive)	> 100 µM (inactive)	
CCOP(=O)(/C=C\n1cc(C)c(=O)[nH]c1=O)OCC	> 100 µM (inactive)	> 100 µM (inactive)	> 100 µM (inactive)	> 100 µM (inactive)			> 100 µM (inactive)	> 100 µM (inactive)	> 100 µM (inactive)	> 100 µM (inactive)	> 100 µM (inactive)	> 100 µM (inactive)	> 100 µM (inactive)	> 100 µM (inactive)	> 100 µM (inactive)		> 100 µM (inactive)	> 100 µM (inactive)	> 100 µM (inactive)	> 100 µM (inactive)
C=C1CC[C@@H]2[C@](C)(COC(=O)CCC(=O)OC)CCC[C@@]2(C)[C@@H]1CCC1=CC(=O)OC1	> 100 µM (inactive)	64.9 µM (inactive)	71.4 µM (inactive)	> 100 µM (inactive)			> 100 µM (inactive)	43.6 µM (inactive)	> 100 µM (inactive)	> 100 µM (inactive)	> 100 µM (inactive)	16.1 µM (inactive)	43.4 µM (inactive)	30.5 µM (inactive)		> 100 µM (inactive)	29 µM (inactive)	41 µM (inactive)	> 100 µM (inactive)	
COCP1(=S)OC(C)CCN1C(C)C (centres undefined)	> 100 µM (inactive)	> 100 µM (inactive)	> 100 µM (inactive)	> 100 µM (inactive)	> 100 µM (inactive)		> 100 µM (inactive)	> 100 µM (inactive)	> 100 µM (inactive)	> 100 µM (inactive)	> 100 µM (inactive)	> 100 µM (inactive)	> 100 µM (inactive)	> 100 µM (inactive)	> 100 µM (inactive)	> 100 µM (inactive)	> 100 µM (inactive)	> 100 µM (inactive)		
Clc1sc(Cl)c2c1[C@@H](Cl)C[C@@H]2Br	83.8 µM (inactive)	> 100 µM (inactive)	> 100 µM (inactive)	> 100 µM (inactive)	> 100 µM (inactive)	37.4 µM (inactive)	> 100 µM (inactive)	90.6 µM (inactive)	> 100 µM (inactive)	71.1 µM (inactive)	> 100 µM (inactive)		> 100 µM (inactive)	> 100 µM (inactive)	68.2 µM (inactive)	> 100 µM (inactive)	34.2 µM (inactive)	> 100 µM (inactive)		78.3 µM (inactive)
O=c1cc(-c2ccccc2)oc2ccc(Oc3nnnn3-c3ccccc3)cc12	> 90.8 µM (inactive)	15.3 µM (inactive)	> 100 µM (inactive)	12.1 µM (inactive)	> 100 µM (inactive)	20.1 µM (inactive)	> 100 µM (inactive)	> 100 µM (inactive)		> 100 µM (inactive)	> 28.2 µM (inactive)	> 100 µM (inactive)	39.2 µM (inactive)	> 100 µM (inactive)	> 48.2 µM (inactive)	> 100 µM (inactive)	3.58 µM (inactive)	> 100 µM (inactive)	90.2 µM (inactive)	> 51.5 µM (inactive)
CN(CCNC(=O)c1cn(C)c2c1ccc1ccccc12)CCNC(=O)c1cn(C)c2c1ccc1ccccc12	3.59 µM (inactive)	1.26 µM (inactive)	2.1 µM (inactive)	2.37 µM (inactive)	0.71 µM (active)	2.07 µM (inactive)	6.05 µM (inactive)	1.79 µM (inactive)	1.47 µM (inactive)	1.85 µM (inactive)	5.62 µM (inactive)	2.59 µM (inactive)	2.2 µM (inactive)	2.6 µM (inactive)	2.7 µM (inactive)	1.91 µM (inactive)	0.365 µM (active)	2.42 µM (inactive)	10.6 µM (inactive)	
COc1ccc(-c2c(/C=N/OCC(=O)O)c3sc4ccccc4n3c2/C=N/OCC(=O)O)cc1	> 50 µM (inactive)	> 50 µM (inactive)	> 50 µM (inactive)	> 50 µM (inactive)	> 50 µM (inactive)	21.8 µM (inactive)	> 50 µM (inactive)	> 50 µM (inactive)	> 50 µM (inactive)	> 50 µM (inactive)	> 50 µM (inactive)		> 50 µM (inactive)	> 50 µM (inactive)	> 50 µM (inactive)	11.9 µM (inactive)	> 50 µM (inactive)	> 50 µM (inactive)		> 50 µM (inactive)
O=c1c(Cl)c(Cl)cnn1-c1ccccc1	20.3 µM (inactive) and 10.8 µM (inactive)	1.8 µM (inactive) and 1.73 µM (inactive)	14.7 µM (inactive) and 12.5 µM (inactive)		3.42 µM (inactive) and 3.85 µM (inactive)			8.91 µM (inactive) and 7.94 µM (inactive)	1.77 µM (inactive)	2.92 µM (inactive) and 3.72 µM (inactive)	2.19 µM (inactive) and 1.53 µM (inactive)	5.92 µM (inactive) and 7.26 µM (inactive)	3.94 µM (inactive) and 3.28 µM (inactive)		1.67 µM (inactive) and 2.21 µM (inactive)	4.18 µM (inactive) and 3.56 µM (inactive)	968 nM (active) and 929 nM (active)		14.9 µM (inactive) and 17.1 µM (inactive)	1.9 µM (inactive) and 2.52 µM (inactive)
